31 compounds from patent publication US20260048047A1, “SMALL-MOLECULE ACTIVATORS OF MYCOBACTERIUM TUBERCULOSIS ADENYLYL CYCLASE” (priority 2022, published 2026) can be followed below.

For the experiment, the system named is M. tuberculosis. Kind of experiment: Extracellular activity against M. tuberculosis in cholesterol media (Alamar Blue reduction assay). Type of experiment: cell-based, Mycobacterium tuberculosis. The settings on record: Mycobacterium tuberculosis, 240 h, 7H12-Cholesterol media, 10 days; read-out: Cholesterol broth: alamar blue--EC50.

Broadly, the pEC50 is −log10 of the EC50, conventionally taken in molar units.

pEC50: −log10 of the molar value.

With `Cn1ncnc1CC(=O)N1CCC(c2nc(-c3ccc(F)cc3)no2)CC1` [Compound 186, 1-(4-(3-(4-fluorophenyl)-1,2,4-oxadiazol-5-yl)piperidin-1-yl)-2-(1-methyl-1H-1,2,4-triazol-5-yl)ethan-1-one], the pEC50 is 6.32. The same measure for `Cn1ncnc1CC(=O)N1CCC(n2nnc(-c3ccc(F)cc3)n2)CC1` [Compound 187, 1-(4-(5-(4-fluorophenyl)-2H-tetrazol-2-yl)piperidin-1-yl)-2-(1-methyl-1H-1,2,4-triazol-5-yl)ethan-1-one]: 5.51; for `Cn1nnnc1CC(=O)N1CCC(c2nc(-c3ccc(F)cc3)no2)CC1` [Compound 188, 1-(4-(3-(4-fluorophenyl)-1,2,4-oxadiazol-5-yl)piperidin-1-yl)-2-(1-methyl-1H-tetrazol-5-yl)ethan-1-one]: 5.20.

On to `Cc1noc(CC(=O)N2CC3CC2CC3c2nc(C3CCCCC3)no2)n1` (stereo not shown) [Compound 189, 1-(5-(3-cyclohexyl-1,2,4-oxadiazol-5-yl)-2-azabicyclo[2.2.1]heptan-2-yl)-2-(3-methyl-1,2,4-oxadiazol-5-yl)ethan-1-one], for which the pEC50 is under 5.00. For `Cc1noc(CC(=O)N2CC3CC2CC3c2nc(-c3ccc(Cl)c(Cl)c3)no2)n1` (stereo not shown) [Compound 190, 1-(5-(3-(3,4-dichlorophenyl)-1,2,4-oxadiazol-5-yl)-2-azabicyclo[2.2.1]heptan-2-yl)-2-(3-methyl-1,2,4-oxadiazol-5-yl)ethan-1-one], the negative logarithm of the EC50 (pEC50) was 5.54. For `Cc1noc(CC(=O)N2CC3CC2CC3c2nc(C3CCC(F)(F)CC3)no2)n1` (stereo not shown) [Compound 191, 1-(5-(3-(4,4-difluorocyclohexyl)-1,2,4-oxadiazol-5-yl)-2-azabicyclo[2.2.1]heptan-2-yl)-2-(3-methyl-1,2,4-oxadiazol-5-yl)ethan-1-one], the pEC50 is under 5.00. `Cc1noc(CC(=O)N2CC3CC2CC3c2nc(-c3ccc(F)c(F)c3)no2)n1` (stereo not shown) [Compound 192, 1-(5-(3-(3,4-difluorophenyl)-1,2,4-oxadiazol-5-yl)-2-azabicyclo[2.2.1]heptan-2-yl)-2-(3-methyl-1,2,4-oxadiazol-5-yl)ethan-1-one]: the pEC50 is under 5.00.

For the compound `Cc1noc(CC(=O)N2CC3CC2CC3c2nc(-c3ccc(F)cc3)no2)n1` (stereo not shown) [Compound 193, 1-(5-(3-(4-fluorophenyl)-1,2,4-oxadiazol-5-yl)-2-azabicyclo[2.2.1]heptan-2-yl)-2-(3-methyl-1,2,4-oxadiazol-5-yl)ethan-1-one], the pEC50 was under 5.00. `Cc1nonc1CC(=O)N1CC2CC1CC2c1nc(C2CCCCC2)no1` (stereo not shown) [Compound 194, 1-(5-(3-cyclohexyl-1,2,4-oxadiazol-5-yl)-2-azabicyclo[2.2.1]heptan-2-yl)-2-(4-methyl-1,2,5-oxadiazol-3-yl)ethan-1-one]: the pEC50 is 6.10. Take `Cc1nonc1CC(=O)N1CC2CC1CC2c1nc(-c2ccc(Cl)c(Cl)c2)no1` (stereo not shown) [Compound 195, 1-(5-(3-(3,4-dichlorophenyl)-1,2,4-oxadiazol-5-yl)-2-azabicyclo[2.2.1]heptan-2-yl)-2-(4-methyl-1,2,5-oxadiazol-3-yl)ethan-1-one]: the pEC50 is 7.03.

For the compound `Cc1nonc1CC(=O)N1CC2CC1CC2c1nc(C2CCC(F)(F)CC2)no1` (stereo not shown) [Compound 196, 1-(5-(3-(4,4-difluorocyclohexyl)-1,2,4-oxadiazol-5-yl)-2-azabicyclo[2.2.1]heptan-2-yl)-2-(4-methyl-1,2,5-oxadiazol-3-yl)ethan-1-one], the negative-log EC50 (pEC50) was 5.90. With `Cc1nonc1CC(=O)N1CC2CC1CC2c1nc(C2CCC(F)C2)no1` (stereo not shown) [Compound 197, 1-(5-(3-(3-fluorocyclopentyl)-1,2,4-oxadiazol-5-yl)-2-azabicyclo[2.2.1]heptan-2-yl)-2-(4-methyl-1,2,5-oxadiazol-3-yl)ethan-1-one], the pEC50 was 4.81.

As for `Cc1nonc1CC(=O)N1CC2CC1CC2c1nc(-c2ccc(F)c(F)c2)no1` (stereo not shown) [Compound 198, 1-(5-(3-(3,4-difluorophenyl)-1,2,4-oxadiazol-5-yl)-2-azabicyclo[2.2.1]heptan-2-yl)-2-(4-methyl-1,2,5-oxadiazol-3-yl)ethan-1-one], the pEC50 is 6.61.

Take `Cc1nonc1CC(=O)N1CC2CC1CC2c1nc(-c2ccc(F)cc2)no1` (stereo not shown) [Compound 199, 1-(5-(3-(4-fluorophenyl)-1,2,4-oxadiazol-5-yl)-2-azabicyclo[2.2.1]heptan-2-yl)-2-(4-methyl-1,2,5-oxadiazol-3-yl)ethan-1-one]: the negative-log EC50 (pEC50) is 6.49. With `Cn1ncnc1CC(=O)N1CC2CC1CC2c1nc(-c2ccc(Cl)cc2)no1` (stereo not shown) [Compound 200, 1-(5-(3-(4-chlorophenyl)-1,2,4-oxadiazol-5-yl)-2-azabicyclo[2.2.1]heptan-2-yl)-2-(1-methyl-1H-1,2,4-triazol-5-yl)ethan-1-one], the pEC50 was 6.43.

In the case of `Cn1ncnc1CC(=O)N1CC2CC1CC2c1nc(-c2ccc(Cl)c(F)c2)no1` (stereo not shown) [Compound 201, 1-(5-(3-(4-chloro-3-fluorophenyl)-1,2,4-oxadiazol-5-yl)-2-azabicyclo[2.2.1]heptan-2-yl)-2-(1-methyl-1H-1,2,4-triazol-5-yl)ethan-1-one], the pEC50 was 6.70. For the compound `Cn1ncnc1CC(=O)N1CC2CC1CC2c1nc(-c2ccc(Cl)cc2F)no1` (stereo not shown) [Compound 204, 1-(5-(3-(4-chloro-2-fluorophenyl)-1,2,4-oxadiazol-5-yl)-2-azabicyclo[2.2.1]heptan-2-yl)-2-(1-methyl-1H-1,2,4-triazol-5-yl)ethan-1-one], the pEC50 was 6.13.

As to `Cn1ncnc1CC(=O)N1CC2CC1CC2c1nc(-c2ccc(F)cc2)no1` (stereo not shown) [Compound 205, 1-(5-(3-(4-fluorophenyl)-1,2,4-oxadiazol-5-yl)-2-azabicyclo[2.2.1]heptan-2-yl)-2-(1-methyl-1H-1,2,4-triazol-5-yl)ethan-1-one], the pEC50 is 5.80. As for `Cc1noc(CC(=O)N2CC3CC(C2)C3c2nc(-c3ccc(Cl)c(Cl)c3)no2)n1` (stereo not shown) [Compound 206, 1-(6-(3-(3,4-dichlorophenyl)-1,2,4-oxadiazol-5-yl)-3-azabicyclo[3.1.1]heptan-3-yl)-2-(3-methyl-1,2,4-oxadiazol-5-yl)ethan-1-one], the negative logarithm of the EC50 (pEC50) was under 5.00.

Take `Cc1noc(CC(=O)N2CC3CC(C2)C3c2nc(C3CCC(F)(F)CC3)no2)n1` (stereo not shown) [Compound 207, 1-(6-(3-(4,4-difluorocyclohexyl)-1,2,4-oxadiazol-5-yl)-3-azabicyclo[3.1.1]heptan-3-yl)-2-(3-methyl-1,2,4-oxadiazol-5-yl)ethan-1-one]: the negative logarithm of the EC50 (pEC50) was under 5.00. Then `Cc1noc(CC(=O)N2CC3CC(C2)C3c2nc(-c3ccc(F)c(F)c3)no2)n1` (stereo not shown) [Compound 208, 1-(6-(3-(3,4-difluorophenyl)-1,2,4-oxadiazol-5-yl)-3-azabicyclo[3.1.1]heptan-3-yl)-2-(3-methyl-1,2,4-oxadiazol-5-yl)ethan-1-one], with at most 5.00. Take `Cc1noc(CC(=O)N2CC3CC(C2)C3c2nc(-c3ccc(F)cc3)no2)n1` (stereo not shown) [Compound 209, 1-(6-(3-(4-fluorophenyl)-1,2,4-oxadiazol-5-yl)-3-azabicyclo[3.1.1]heptan-3-yl)-2-(3-methyl-1,2,4-oxadiazol-5-yl)ethan-1-one]: the negative logarithm of the EC50 (pEC50) is at most 5.00. For `Cc1nocc1CC(=O)N1CC2CC(C1)C2c1nc(-c2ccc(F)cc2)no1` (stereo not shown) [Compound 210, 1-(6-(3-(4-fluorophenyl)-1,2,4-oxadiazol-5-yl)-3-azabicyclo[3.1.1]heptan-3-yl)-2-(3-methylisoxazol-4-yl)ethan-1-one], the pEC50 is at most 4.60. For the compound `Cc1nonc1CC(=O)N1CC2CC(C1)C2c1nc(C2CCC(C)(F)CC2)no1` (stereo not shown) [Compound 211, 1-(6-(3-(4-fluoro-4-methylcyclohexyl)-1,2,4-oxadiazol-5-yl)-3-azabicyclo[3.1.1]heptan-3-yl)-2-(4-methyl-1,2,5-oxadiazol-3-yl)ethan-1-one], the negative logarithm of the EC50 (pEC50) is 5.42.

As to `Cc1nonc1CC(=O)N1CC2CC(C1)C2c1nc(-c2ccc(Cl)c(Cl)c2)no1` (stereo not shown) [Compound 212, 1-(6-(3-(3,4-dichlorophenyl)-1,2,4-oxadiazol-5-yl)-3-azabicyclo[3.1.1]heptan-3-yl)-2-(4-methyl-1,2,5-oxadiazol-3-yl)ethan-1-one], the negative-log EC50 (pEC50) was 5.30. As for `Cc1nonc1CC(=O)N1CC2CC(C1)C2c1nc(C2CCC(F)(F)CC2)no1` (stereo not shown) [Compound 213, 1-(6-(3-(4,4-difluorocyclohexyl)-1,2,4-oxadiazol-5-yl)-3-azabicyclo[3.1.1]heptan-3-yl)-2-(4-methyl-1,2,5-oxadiazol-3-yl)ethan-1-one], the pEC50 was 6.31. On to `Cc1nonc1CC(=O)N1CC2CC(C1)C2c1nc(-c2ccc(F)c(F)c2)no1` (stereo not shown) [Compound 214, 1-(6-(3-(3,4-difluorophenyl)-1,2,4-oxadiazol-5-yl)-3-azabicyclo[3.1.1]heptan-3-yl)-2-(4-methyl-1,2,5-oxadiazol-3-yl)ethan-1-one], for which the negative logarithm of the EC50 (pEC50) was 5.30.

Regarding `Cc1nonc1CC(=O)N1CC2CC(C1)C2c1nc(-c2ccc(F)cc2)no1` (stereo not shown) [Compound 215, 1-(6-(3-(4-fluorophenyl)-1,2,4-oxadiazol-5-yl)-3-azabicyclo[3.1.1]heptan-3-yl)-2-(4-methyl-1,2,5-oxadiazol-3-yl)ethan-1-one], the pEC50 was 6.88. As for `Cn1ncnc1CC(=O)N1CC2CC(C1)C2c1nc(-c2ccc(Cl)c(Cl)c2)no1` (stereo not shown) [Compound 216, 1-(6-(3-(3,4-dichlorophenyl)-1,2,4-oxadiazol-5-yl)-3-azabicyclo[3.1.1]heptan-3-yl)-2-(1-methyl-1H-1,2,4-triazol-5-yl)ethan-1-one], the negative logarithm of the EC50 (pEC50) was under 5.00. For the compound `Cn1ncnc1CC(=O)N1C[C@H]2C[C@@H](C1)[C@@H]2c1nc(-c2ccc(Cl)c(Cl)c2)no1` [Compound 217, 1-((1R,5S,6r)-6-(3-(3,4-dichlorophenyl)-1,2,4-oxadiazol-5-yl)-3-azabicyclo[3.1.1]heptan-3-yl)-2-(1-methyl-1H-1,2,4-triazol-5-yl)ethan-1-one], the pEC50 was 7.00.

Take `Cn1ncnc1CC(=O)N1C[C@H]2C[C@@H](C1)[C@H]2c1nc(-c2ccc(Cl)c(Cl)c2)no1` [Compound 218, 1-((1R,5S,6s)-6-(3-(3,4-dichlorophenyl)-1,2,4-oxadiazol-5-yl)-3-azabicyclo[3.1.1]heptan-3-yl)-2-(1-methyl-1H-1,2,4-triazol-5-yl)ethan-1-one]: the pEC50 is under 5.00.
